Experimental findings from patent US9073943B2, “Antiviral compounds with a dibenzooxaheterocycle moiety” (Lupin Limited, priority 2012, dated 2015) are described below.

For assay [1], the system named is Huh7.5/Con1/SG-Neo(I)hRluc2aUb cell line persistently expressing a bicistronic genotype 1b replicon. Kind of assay: HCV replicon assay, genotype 1b (Renilla luciferase readout). The note with it: Hepatitis C virus, genotype 1b replicon in Huh 7.5 cells, 72 h, read-out: Gt1b IC50. Type of assay: cell-based. An excerpt: (§1) Anti-viral activity of the compounds of the invention was monitored using an HCV replicon assay. The Huh7.5/Con1/SG-Neo(I)hRluc2aUb cell line persistently expressing a bicistronic genotype 1b replicon in Huh 7.5 cells and the Huh7.5/J6/JFH1/EMCVIRES/hRlucNeo cell line expressing a bicistronic genotype 2a replicon in Huh 7.5 cells were obtained from Apath LLC. These cell lines were used to test inhibition of replicon levels by test compound using Renilla luciferase enzyme activity readout as a measure of viral replication efficiency.
(§2) Briefly, 7000-7500 cells were seeded in 96 well black clear bottom plates and allowed to adhere overnight. The next day each compound was added in triplicate to the cells at the desired concentration with a final DMSO concentration of 0.5%. Cells in media alone and cells incubated without drug with 0.5% DMSO served as controls. The plates were incubated for 72 h at 37° C. prior to running the luciferase assay. Enzyme activity was measured using Renilla-Glo Luciferase Assay kit from Promega as per the manufacturer's instructions. The following equation was used to generate the percent inhibition value for each test concentration.
(§3) The IC50 value was determined using GraphPad Prism and the following equation: Y=Bottom+(Top−Bottom)/(1+10^((LogIC50−X)*Hill slope))
(§4) IC50 values/% inhibitions of compounds were determined 2-3 times in the replicon assays.
On the technique in general: Replicon systems follow genome replication, usually without infectious particles.

Assay [2] concerns Huh7.5/J6/JFH1/EMCVIRES/hRlucNeo cell line expressing a bicistronic genotype 2a replicon. The assay can be described thus: HCV replicon assay, genotype 2a (Renilla luciferase readout). The settings on record: Hepatitis C virus, genotype 2a replicon in Huh 7.5 cells, 72 h, read-out: Gt2a IC50. Type of assay: cell-based.
From the text: as §1, §2, §3, §4

As a reminder, the IC50 is the midpoint of a concentration-inhibition curve. As to `COC(=O)N[C@H](C(=O)N1CCC[C@H]1c1ncc(-c2ccc3c(c2)OCCCOc2cc(-c4[nH]c([C@@H]5CCCN5C(=O)[C@@H](NC(=O)OC)C(C)C)nc4Cl)ccc2-3)[nH]1)C(C)C` [Compound 2, methyl ((S)-1-((S)-2-(5-(11-(2-((S)-1-((S)-2-(methoxycarbonyl)amino-3-methylbutanoyl)pyrrolidin-2-yl)-1H-imidazol-5-yl)-7,8-dihydro-6H-dibenzo[f,h][1,5]dioxonin-3-yl)-4-chloro-1H-imidazol-2-yl)pyrrolidin-1-yl)-3-methyl-1-oxobutan-2-yl)carbamate], the IC50 is 0.051 nM in assay [1] and 0.053 nM in assay [2].

As to `COC(=O)N[C@H](C(=O)N1CCC[C@H]1c1nc(Cl)c(-c2ccc3c(c2)OCCCOc2cc(-c4[nH]c([C@@H]5CCCN5C(=O)[C@@H](NC(=O)OC)C(C)C)nc4Cl)ccc2-3)[nH]1)C(C)C` [Compound 3, dimethyl ((2S,2′S)-((2S,2′S)-2,2′-(5,5′-(7,8-dihydro-6H-dibenzo[f,h][1,5]dioxonine-3,11-diyl)bis(4-chloro-1H-imidazole-5,2-diyl))bis(pyrrolidine-2,1-diyl))bis(3-methyl-1-oxobutane-2,1-diyl))dicarbamate], the results for the half-inhibitory concentration (IC50) in assay [1] and in assay [2] were 0.018 nM and 0.037 nM, respectively.

Take `COC(=O)N[C@H](C(=O)N1CCC[C@H]1c1ncc(-c2ccc3c(c2)OCC(C)(C)COc2cc(-c4[nH]c([C@@H]5CCCN5C(=O)[C@@H](NC(=O)OC)C(C)C)nc4Cl)ccc2-3)[nH]1)C(C)C` [Compound 6, methyl ((S)-1-((S)-2-(5-(11-(2-((S)-1-((S)-2-(methoxycarbonyl)amino-3-methylbutanoyl)pyrrolidin-2-yl)-4-chloro-1H-imidazol-5-yl)-7,7-dimethyl-7,8-dihydro-6H-dibenzo[f,h][1,5]dioxonin-3-yl)-1H-imidazol-2-yl)pyrrolidin-1-yl)-3-methyl-1-oxobutan-2-yl)carbamate]: the IC50 in assay [1] came to 0.021 nM; in assay [2], 0.671 nM.

On to `COC(=O)N[C@H](C(=O)N1CCC[C@H]1c1nc(Cl)c(-c2ccc3c(c2)OCC(C)(C)COc2cc(-c4[nH]c([C@@H]5CCCN5C(=O)[C@@H](NC(=O)OC)C(C)C)nc4Cl)ccc2-3)[nH]1)C(C)C` [Compound 7, dimethyl ((2S,2′S)-((2S,2′S)-2,2′-(5,5′-(7,7-dimethyl-7,8-dihydro-6H-dibenzo[f,h][1,5]dioxonine-3,11-diyl)bis(4-chloro-1H-imidazole-5,2-diyl))bis(pyrrolidine-2,1-diyl))bis(3-methyl-1-oxobutane-2,1-diyl))dicarbamate], for which the concentration for half-maximal inhibition (IC50) was determined as 0.004 nM in assay [1] and 0.249 nM in assay [2].
